Reference: patent US20110028504A1, “Formulation of radioprotective alpha beta unsaturated aryl sulfones” (ONCONOVA THERAPEUTICS, INC., priority 2005, published 2011)

Tests used:
HFL-1 cells = experiment: Radioprotection of cultured normal cells, colony count after ionizing radiation; type: cell-based, human; conditions: 2.5 to 20 micromolar for 24 hrs before 10 Gy or 15 Gy ionizing radiation, colonies vs DMSO control
Protocol: HFL-1 cells, which are normal diploid lung fibroblasts, were plated into 24 well dishes at a cell density of 3000 cells per 10 mm^2 in DMEM completed with 10% fetal bovine serum and antibiotics. The test compounds listed in Table 28 were added to the cells 24 hours later in select concentrations from 2.5 to 20 micromolar, inclusive, using DMSO as a solvent. Control cells were treated with DMSO alone. The cells were exposed to the test compound or DMSO for 24 hrs. The cells were then irradiated with either 10 Gy (gray) or 15 Gy of ionizing radiation (IR) using a J.L. Shepherd Mark I, Model 30-1 Irradiator equipped with ^137cesium as a source.
After irradiation, the medium on the test and control cells was removed and replaced with fresh growth medium without the test compounds or DMSO. The irradiated cells were incubated for 96 hours and duplicate wells were trypsinized and replated onto 100 mm^2 tissue culture dishes. The replated cells were grown under normal conditions with one change of fresh medium for 3 weeks. The number of colonies from each 100 mm^2 culture dish, which represents the number of surviving cells, was determined by staining the dishes as described below.
To visualize and count the colonies derived from the clonal outgrowth of individual radioprotected cells, the medium was removed and the plates were washed one time with room temperature phosphate buffered saline. The cells were stained with a 1:10 diluted Modified Giemsa staining solution (Sigma) for 20 minutes. The stain was removed, and the plates were washed with tap water. The plates were air dried, the number of colonies from each plate were counted and the average from duplicate plates was determined.
A “+” indicates radioprotective activity of between 2- and 4.5-fold at the concentrations tested. Fold protection was determined by dividing the average number of colonies from the test plates by the average number of colonies on the control plates.

C57 black mice = experiment: Protection of mice from radiation toxicity by pre-treatment; type: in vivo
Protocol: C57 black mice age 10-12 weeks (Taconic) were divided into two treatment groups of 10 mice each. One group, designated the “200×2” group, received intraperitoneal injections of 200 micrograms (E)-4-carboxystyryl-4-chlorobenzylsulfone dissolved in DMSO (a 10 mg/Kg dose, based on 20 g mice) 18 and 6 hours before irradiation with 8 Gy gamma radiation. The other group, designated “500×2,” received intraperitoneal injections of 500 micrograms (E)-4-carboxystyryl-4-chlorobenzylsulfone dissolved in DMSO (a 25 mg/Kg dose, based on 20 g mice) 18 and 6 hours before irradiation with 8 Gy gamma radiation. A control group of 16 animals received 8 Gy gamma radiation alone.

rodent species = conditions: in vivo; cited from earlier work

| Compound | Activity (radioprotective activity, fold protection) (HFL-1 cells) | also measured |
| --- | --- | --- |
| O=S(=O)(/C=C/c1ccc(F)cc1)Cc1ccc(Cl)cc1 [Compound 1, (E)-4-Fluorostyryl-4-chlorobenzylsulfone] | + (A “+” indicates radioprotective activity of between 2- and 4.5-fold at the concentrations tested) |  |
| O=S(=O)(/C=C\c1ccc(F)cc1)Cc1ccc(Cl)cc1 [Compound 7, (Z)-4-Fluorostyryl-4-chlorobenzylsulfone] | + (A “+” indicates radioprotective activity of between 2- and 4.5-fold at the concentrations tested) |  |
| O=S(=O)(/C=C/c1ccoc1)Cc1ccc(Cl)cc1Cl [Compound 8, (E)-3-Furanethenyl-2,4-dichlorobenzylsulfone] | + (A “+” indicates radioprotective activity of between 2- and 4.5-fold at the concentrations tested) |  |
| O=C(O)c1ccc(/C=C/S(=O)(=O)Cc2ccc(Cl)cc2)cc1 [Compound 13, (E)-4-Carboxystyryl-4-chlorobenzylsulfone] | + (A “+” indicates radioprotective activity of between 2- and 4.5-fold at the concentrations tested) | maximum mortality rate by day 40 (C57 black mice; “200×2” group: 10 mg/Kg intraperitoneal 18 and 6 hours before 8 Gy gamma radiation): approximately 60%; mice dead at day 20 (C57 black mice; “200×2” group: 10 mg/Kg intraperitoneal 18 and 6 hours before 8 Gy gamma radiation (control 80%)): about 50%; maximum mortality rate by day 40 (C57 black mice; “500×2” group: 25 mg/Kg intraperitoneal 18 and 6 hours before 8 Gy gamma radiation): about 50%; mice dead at day 20 (C57 black mice; “500×2” group: 25 mg/Kg intraperitoneal 18 and 6 hours before 8 Gy gamma radiation (control 80%)): about 30% |
| (E)-2,4,6-Trimethoxystyryl-4-methoxybenzylsulfone [Compound 2] | + (A “+” indicates radioprotective activity of between 2- and 4.5-fold at the concentrations tested) |  |
| (E)-4-Fluorostyryl-4-chlorophenylsulfone [Compound 10] | + (A “+” indicates radioprotective activity of between 2- and 4.5-fold at the concentrations tested) |  |
| (E)-4-Fluorostyryl-4-cyanobenzylsulfone [Compound 6] | + (A “+” indicates radioprotective activity of between 2- and 4.5-fold at the concentrations tested) |  |
| (E)-4-Fluorostyryl-4-trifluoromethylbenzylsulfone [Compound 5] | + (A “+” indicates radioprotective activity of between 2- and 4.5-fold at the concentrations tested) |  |
| (Z)-Styryl-(E)-2-methoxy-4-ethoxystyrylsulfone [Compound 11] | + (A “+” indicates radioprotective activity of between 2- and 4.5-fold at the concentrations tested) |  |
| Hydroxypropyl-B-Cyclodextrin [HPCD] |  | toxicity (rodent species): non-toxic |
